Legend:
[1] = Body mass of mice on a high fat diet, BSO in drinking water, four weeks; type: in vivo, Male C3H mice; conditions: BSO 30 mmol/L in drinking water, over four week treatment, control group showed significant weight gain
Source text: (§1) Male C3H mice were used. Two cohorts of twelve mice were weaned and fed on a commercial standard diet (SDS Rat and Mouse No.3 Breeding diet (RM3)), containing 3.36 g% fat, 22.45 g % protein and 71.21 g % carbohydrate, till maturity. At 11 weeks of age, the standard diet was replaced with a high fat diet (Research Diets Inc, USA, D12492, containing 35 g % fat, from lard and soybean oil). One cohort was provided with BSO (30 mmol/L) in their drinking water, concomitant with the start of high fat feeding, while the other cohort (control group) received no treatment. […]
(§2) Phenotyping tests were performed according to the European Phenotyping Resource for Standardised Screens (EMPReSS) from EUMORPHIA standardized protocols, available at http://empress.har.mrc.ac.uk. Body mass was measured daily on scales calibrated to 0.01 g. Metabolic rate was measured using indirect calorimetry (Oxymax; Columbus Instruments) to determine oxygen consumption and carbon dioxide production. Body composition (% fat tissue and % lean tissue) was assessed utilizing an EchoMRl-100 quantitative magnetic resonance whole body composition analyzer (Echo Medical Systems, Houston, Tex.).

[2] = Body composition (EchoMRI) and dissected fat depots of mice on a high fat diet; type: in vivo, Male C3H mice
Source text: (§3) Male C3H mice were used. Two cohorts of twelve mice were weaned and fed on a commercial standard diet (SDS Rat and Mouse No.3 Breeding diet (RM3)), containing 3.36 g% fat, 22.45 g % protein and 71.21 g % carbohydrate, till maturity. At 11 weeks of age, the standard diet was replaced with a high fat diet (Research Diets Inc, USA, D12492, containing 35 g % fat, from lard and soybean oil). One cohort was provided with BSO (30 mmol/L) in their drinking water, concomitant with the start of high fat feeding, while the other cohort (control group) received no treatment. The mice were kept in accordance with UK Home Office welfare guidelines and project license restrictions under controlled light (12-h light and 12-h dark cycle; dark 7 p.m.-7 a.m.), temperature (21° C.±2° C.) and humidity (55%±10%) conditions. They had free access to water (10 ppm chlorine) and food throughout the experiment.
as §2

[3] = Metabolic rate by indirect calorimetry (Oxymax); type: in vivo, Male C3H mice; conditions: dark and light phases, per unit weight, vs control, P<0.001
Source text: as §1, §2

[4] = Plasma amino acids and sulphur compounds (tCys, tHcy, glutathione, taurine); type: in vivo, Male C3H mice
Source text: Further, SCD activity increases with high tCys concentration in both rodents and humans. tCys refers to all natural forms of circulating cysteine, such as cysteine (thiol form), cystine (disulphide form), cysteine-mixed disulphides with other thiol compounds, and protein-bound cysteine not in peptide linkage. tCys in the plasma or serum can be measured using techniques described, for example, in WO2010/010383.
as §3

[5] = Plasma ALT, lipid components, glucose and glycerol; type: in vivo, Male C3H mice; conditions: vs control
Source text: as §3

[6] = Plasma fatty acid concentrations (free and total); type: in vivo, Male C3H mice; conditions: vs control
Source text: as §3

[7] = test system: stearoyl-coenzymeA desaturase (SCD); assay: SCD activity indices (SCD16, SCD18) from plasma fatty acid ratios; type: in vivo, Male C3H mice; conditions: vs control
Source text: Compounds of Formula I inhibit SCD activity, which can be measured using one or more activity indices. These can be based on measurements of different fatty acid components of the blood plasma or serum.
Activity indices are based on the amount of monounsaturated fatty acids relative to their respective […] precursors. The most commonly used SCD activity indices are derived from the ratio of palmitoleic to palmitic acids (“SCD16 index”), and the ratio of oleic to stearic acid (“SCD18 index”). These ratios are lowered with increased inhibition of SCD. SCD indices can either be calculated from plasma/serum free fatty acids, or from the total fatty acid pool, which also includes esterified fatty acids (e.g. triglycerides and phospholipids). Indices calculated from free fatty acid concentrations reflect SCD activity in adipose tissue, while those from total fatty acids reflect SCD activity in liver (Warensjo et al, Lipids Health Dis 2009, 8:37). Both in rodents and humans, SCD indices are associated with fat mass.
as §3

liver cells = assay: Liver histology, fat vacuolation score; type: in vivo, Male C3H mice; conditions: high fat diet, vs control
Source text: as §3

[8] = Fasting plasma glucose, insulin and HOMA-IR, eight week BSO study; type: in vivo, Male C3H mice; conditions: after six weeks of BSO treatment, vs control
Source text: as §3
Thus, BSO-treated mice had lower glucose plasma levels, and lower insulin concentrations compared to the control. […] The HOMA IR index is a calculation of insulin resistance based on fasting glucose and insulin plasma levels, the calculation being known to those skilled in the art. Leptin plasma levels are also shown.
(§4) For the results presented in FIGS. 23 and 24, the experiments were carried out using the same conditions as described above (i.e. same mouse strain, mouse age, diet, and experimental design) except that the mice were treated for eight weeks with BSO, and the plasma for insulin, glucose, and leptin analysis was drawn after a 6-hour fast, after six weeks of BSO treatment.

[9] = Plasma and liver reduced and total glutathione, eight week BSO study; type: in vivo, Male C3H mice; conditions: eight weeks BSO, vs control
Source text: as §3, §4

[10] = Findeisen et al, cited from earlier work
adipocytes = conditions: Vigilanza et al; cited from earlier work
[11] = rats, Ogihara et al; cited from earlier work
[12] = dissected mice, vs control, P<0.001

In the case of CCCCS(=N)(=O)CCC(N)C(=O)O (centres unmarked) [BSO, buthionine sulfoximine], the body weight [1] is reported as “reduction in body weight”, the “amount of brown fat mass” value ([2]; dissected mice, vs control) is reported as “similar” and the “abdominal fat as a percentage of total body weight” value [2, 12] is reported as “significantly lower”. For the same compound, the “quantity of abdominal fat in grams” value [2, 12] was “significantly lower”, the lean mass ([2]; echo MRI, difference between BSO and control cohorts) was “only a relatively small difference” and the “quantity of body fat” value ([2]; echo MRI, vs control mice, high fat diet) was “substantially lower”. The “brown fat as a percentage of total fat mass” value ([2]; vs control, P<0.05) was “higher”, the “abdominal fat mass as a percentage of total fat mass” value ([2]; vs control, P=0.055) was “trend towards decrease” and the carbon dioxide production [3] was “greater”. The oxygen consumption [3] was “significantly greater”, the “concentration of amino acids in the plasma” value ([4]; difference between BSO and control cohorts) was “little difference” and the plasma glutathione concentrations ([4]; four week study, vs control) was “decrease”. For the same compound, the “total homocysteine (tHcy) plasma concentrations” value ([4]; vs control) was “larger concentrations”, the plasma taurine concentrations ([4]; vs control cohort) was “substantially lower” and the “plasma tCys concentrations” value ([4]; vs controls, all measured forms of cysteine) was “significantly and substantially lower”. For the same compound, the plasma glucose ([5]; four week study) was “decreased”, the plasma glycerol [5] was “decreased” and the “plasma high density lipoprotein (HDL)” value [5] was “lower”. For the same compound, the “plasma low density lipoprotein (LDL)” value [5] was “lower”, the “plasma non-esterified fatty acids” value [5] was “lower” and the plasma total cholesterol [5] was “lower”. For the same compound, the plasma triglycerides ([5]; lower, particularly so) was “lower”, the “plasma ALT concentrations” value ([5]; marker of NAFLD) was “substantially lower” and the “fatty acid plasma concentrations, a number of C14 to C22 fatty acids” value ([6]; free and total fatty acids) was “lower”. The “free palmitic acid plasma concentration” value [6] was “lower”, the “free palmitoleic acid plasma concentration” value [6] was “lower” and the “oleic acid to stearic acid ratio (SCD18 index)” value ([7]; free fatty acids in plasma) was “lower”. For the same compound, the “ratio of palmitoleic acid to palmitic acid (SCD16 index)” value ([7]; free fatty acids in plasma) was “lower”, the “unsaturated/saturated fatty acid ratios (SCD16 and SCD18 activity indices)” value ([7]; total fatty acid concentrations in plasma) was “lower” and the liver fat vacuolation (liver cells) was “absent”. For the same compound, the glucose plasma levels ([8]; 6-hour fast) was “lower”, the insulin plasma concentrations ([8]; 6-hour fast) was “lower” and the “HOMA insulin-resistance (IR) index” value ([8]; from fasting glucose and insulin) was “significantly lower”. The “liver rGSH levels” value [9] was “similar”, the “liver rGSH/tGSH ratio” value [9] was “higher” and the “liver tGSH levels” value [9] was “lower”. For the same compound, the “plasma rGSH/tGSH ratio” value [9] was “similar”, the “plasma reduced glutathione (rGSH)” value [9] was “lower” and the “plasma total glutathione (tGSH)” value [9] was “lower”. The insulin sensitivity [10] was “preserve insulin sensitivity”, the diet-induced obesity ([10]; mice) was “reduce” and the energy expenditure ([10]; mice) was “increase”. The locomotor activity ([10]; mice) was “increase”, the adipogenesis (adipocytes) was “increased adipogenesis” and the intracellular glutathione (adipocytes) was “decreases”. For the same compound, the triglycerides in adipocytes (adipocytes) was “triglyceride accumulation” and the insulin resistance [11] was “induces insulin resistance”.

Source: patent US20170172958A1, “Compounds for Use in Controlling Body Fat” (priority 2014, published 2017)
